Test results as given in ChEMBL document CHEMBL5352421, “Identification of novel piperazine-tethered phthalazines as selective CDK1 inhibitors endowed with in vitro anticancer activity toward the pancreatic cancer” (Eur J Med Chem, 2022).
Calls of active or inactive are those of the source. The rule behind the calls is not given here.

Legend:
[1] = biological target: T1, Tyrosine-protein kinase receptor UFO (Homo sapiens, UniProt P30530); experiment: Inhibition of AXL (unknown origin) by FRET assay
T1 sequence (P30530 whole entry): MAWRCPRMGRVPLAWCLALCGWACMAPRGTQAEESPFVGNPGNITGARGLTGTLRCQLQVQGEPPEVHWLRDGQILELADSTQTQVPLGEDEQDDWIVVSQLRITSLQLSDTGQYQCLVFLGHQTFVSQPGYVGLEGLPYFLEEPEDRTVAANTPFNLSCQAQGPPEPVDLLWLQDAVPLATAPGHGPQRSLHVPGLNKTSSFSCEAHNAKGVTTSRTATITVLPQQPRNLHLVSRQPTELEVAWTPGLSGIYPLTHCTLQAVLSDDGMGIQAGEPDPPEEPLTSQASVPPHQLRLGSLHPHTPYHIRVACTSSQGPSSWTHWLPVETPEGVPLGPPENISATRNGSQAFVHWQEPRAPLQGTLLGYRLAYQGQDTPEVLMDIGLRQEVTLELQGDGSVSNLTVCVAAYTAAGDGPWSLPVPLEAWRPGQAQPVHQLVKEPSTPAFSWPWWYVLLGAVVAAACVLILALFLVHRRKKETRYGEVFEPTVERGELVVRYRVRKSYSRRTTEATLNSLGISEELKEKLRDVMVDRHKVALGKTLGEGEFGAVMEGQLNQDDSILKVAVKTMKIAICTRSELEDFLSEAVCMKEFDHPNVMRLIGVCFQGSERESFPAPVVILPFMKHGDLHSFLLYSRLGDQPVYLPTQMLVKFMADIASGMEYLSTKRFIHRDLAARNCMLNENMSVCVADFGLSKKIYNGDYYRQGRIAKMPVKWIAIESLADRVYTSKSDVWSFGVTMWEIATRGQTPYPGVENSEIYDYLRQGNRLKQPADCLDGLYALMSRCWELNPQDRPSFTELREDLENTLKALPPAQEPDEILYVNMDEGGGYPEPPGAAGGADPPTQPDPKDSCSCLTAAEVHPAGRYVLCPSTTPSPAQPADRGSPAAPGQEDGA

[2] = Selectivity index, ratio of IC50 for CDK2 (unknown origin) to CDK1 (unknown origin)
[3] = biological target: Cyclin-dependent kinase 5 (Homo sapiens, UniProt Q00535); experiment: Inhibition of CDK5 (unknown origin) by FRET assay
[4] = biological target: Insulin-like growth factor 1 receptor (Homo sapiens, UniProt P08069); experiment: Inhibition of IGF1R (unknown origin) by FRET assay
[5] = biological target: Serine/threonine-protein kinase B-raf (Homo sapiens, UniProt P15056); experiment: Inhibition of BRAF (unknown origin) by FRET assay
[6] = Antiproliferative activity against human PL45 cells assessed as growth inhibition incubated at 10 uM for 24 hrs by MTT assay relative to control; type: functional; details: read-out: GI
[7] = Antiproliferative activity against human PL45 cells assessed as growth inhibition incubated for 24 hrs by MTT assay; type: functional, cell-based; details: PL45, 24 h
[8] = Selectivity index, ratio of IC50 for CDK5 (unknown origin) to CDK1 (unknown origin)
SK-MEL-1 = experiment: Antiproliferative activity against human SK-MEL-1 cells assessed as growth inhibition incubated at 10 uM for 24 hrs by MTT assay relative to control; type: functional; details: read-out: GI
[9] = Antiproliferative activity against human MDA-PATC53 cells assessed as growth inhibition incubated for 24 hrs by MTT assay; type: functional, cell-based; details: MDA-PATC53, 24 h
A-375 = experiment: Antiproliferative activity against human A-375 cells assessed as growth inhibition incubated at 10 uM for 24 hrs by MTT assay relative to control; type: functional; details: read-out: GI
[10] = biological target: Tyrosine-protein kinase JAK1 (Homo sapiens, UniProt P23458); experiment: Inhibition of JAK1 (unknown origin) by FRET assay
MCF7 = experiment: Antiproliferative activity against human MCF7 cells assessed as growth inhibition incubated at 10 uM for 24 hrs by MTT assay relative to control; type: functional; details: read-out: GI
[11] = biological target: Fibroblast growth factor receptor (Homo sapiens, UniProt P22607+P11362+P22455+P21802); experiment: Inhibition of FGFR (unknown origin) by FRET assay; type: protein assay
MDA-PATC53 [12] = experiment: Induction of cell cycle arrest in human MDA-PATC53 cells assessed as accumulation of cells at S phase incubated at IC50 for 24 hrs measured by flow cytometric analysis; type: functional, cell-based
MOLT-4 = experiment: Antiproliferative activity against human MOLT-4 cells assessed as growth inhibition incubated at 10 uM for 24 hrs by MTT assay relative to control; type: functional; details: read-out: GI
[13] = biological target: Cyclin-dependent kinase 2 (Homo sapiens, UniProt P24941); experiment: Inhibition of CDK2 (unknown origin) by FRET assay
T84 = experiment: Antiproliferative activity against human T84 cells assessed as growth inhibition incubated at 10 uM for 24 hrs by MTT assay relative to control; type: functional; details: read-out: GI
[14] = biological target: Cyclin-dependent kinase 1 (Homo sapiens, UniProt P06493); experiment: Inhibition of CDK1 (unknown origin) by FRET assay
G-361 = experiment: Antiproliferative activity against human G-361 cells assessed as growth inhibition incubated at 10 uM for 24 hrs by MTT assay relative to control; type: functional; details: read-out: GI
[15] = Induction of cell cycle arrest in human MDA-PATC53 cells assessed as accumulation of cells at G2/M phase incubated at IC50 for 24 hrs measured by flow cytometric analysis (reference value: 9%); type: functional
HT-29 = experiment: Antiproliferative activity against human HT-29 cells assessed as growth inhibition incubated at 10 uM for 24 hrs by MTT assay relative to control; type: functional; details: read-out: GI
MDA-PATC53 [16] = experiment: Downregulation of CDK1 expression in human MDA-PATC53 cells incubated at IC50 for 24 hrs by Western blotting analysis; type: functional, cell-based
KG-1 = experiment: Antiproliferative activity against human KG-1 cells assessed as growth inhibition incubated at 10 uM for 24 hrs by MTT assay relative to control; type: functional; details: read-out: GI
BT-549 = experiment: Antiproliferative activity against human BT-549 cells assessed as growth inhibition incubated at 10 uM for 24 hrs by MTT assay relative to control; type: functional; details: read-out: GI
[17] = Antiproliferative activity against human MDA-PATC53 cells assessed as growth inhibition incubated at 10 uM for 24 hrs by MTT assay relative to control; type: functional; details: read-out: GI
[18] = biological target: Protein-tyrosine kinase 2-beta (Homo sapiens, UniProt Q14289); experiment: Inhibition of PTK2B (unknown origin) by FRET assay
Sequence of Protein-tyrosine kinase 2-beta (Q14289 whole entry): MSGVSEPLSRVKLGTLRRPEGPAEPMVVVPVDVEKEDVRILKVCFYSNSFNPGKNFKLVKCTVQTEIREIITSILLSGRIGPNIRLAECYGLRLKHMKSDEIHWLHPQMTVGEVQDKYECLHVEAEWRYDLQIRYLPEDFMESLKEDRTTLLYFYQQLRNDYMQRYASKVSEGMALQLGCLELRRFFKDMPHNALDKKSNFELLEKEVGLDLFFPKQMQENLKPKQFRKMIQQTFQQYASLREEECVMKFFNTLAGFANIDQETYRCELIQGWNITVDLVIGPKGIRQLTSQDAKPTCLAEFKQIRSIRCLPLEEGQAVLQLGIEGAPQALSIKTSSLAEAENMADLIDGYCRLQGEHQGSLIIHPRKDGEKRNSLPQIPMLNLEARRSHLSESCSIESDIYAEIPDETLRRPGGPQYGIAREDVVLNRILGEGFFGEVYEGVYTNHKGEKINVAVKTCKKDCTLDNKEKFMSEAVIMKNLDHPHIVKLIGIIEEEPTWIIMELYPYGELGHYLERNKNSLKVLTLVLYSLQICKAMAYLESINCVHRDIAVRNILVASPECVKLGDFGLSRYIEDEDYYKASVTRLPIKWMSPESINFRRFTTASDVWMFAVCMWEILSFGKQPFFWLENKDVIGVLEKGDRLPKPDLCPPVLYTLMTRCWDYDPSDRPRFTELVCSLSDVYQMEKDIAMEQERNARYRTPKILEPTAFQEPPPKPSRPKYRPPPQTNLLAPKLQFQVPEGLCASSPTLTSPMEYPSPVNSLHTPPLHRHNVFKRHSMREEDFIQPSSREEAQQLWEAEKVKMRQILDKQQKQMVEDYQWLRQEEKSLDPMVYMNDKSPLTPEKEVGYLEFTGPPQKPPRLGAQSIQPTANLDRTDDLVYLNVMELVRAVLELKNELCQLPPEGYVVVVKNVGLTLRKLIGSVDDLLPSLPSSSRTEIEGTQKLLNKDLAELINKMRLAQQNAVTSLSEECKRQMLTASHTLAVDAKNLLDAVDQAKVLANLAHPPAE

Sequence of Cyclin-dependent kinase 1 (P06493 whole entry): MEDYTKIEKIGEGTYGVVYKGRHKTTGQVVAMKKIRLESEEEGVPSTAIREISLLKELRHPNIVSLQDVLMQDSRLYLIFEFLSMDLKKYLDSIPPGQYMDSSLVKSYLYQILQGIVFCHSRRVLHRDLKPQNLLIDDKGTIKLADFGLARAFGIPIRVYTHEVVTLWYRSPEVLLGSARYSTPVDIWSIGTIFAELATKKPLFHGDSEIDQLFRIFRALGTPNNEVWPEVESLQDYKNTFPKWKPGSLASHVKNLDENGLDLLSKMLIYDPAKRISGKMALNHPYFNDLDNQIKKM
Sequence of Tyrosine-protein kinase JAK1 (P23458 whole entry): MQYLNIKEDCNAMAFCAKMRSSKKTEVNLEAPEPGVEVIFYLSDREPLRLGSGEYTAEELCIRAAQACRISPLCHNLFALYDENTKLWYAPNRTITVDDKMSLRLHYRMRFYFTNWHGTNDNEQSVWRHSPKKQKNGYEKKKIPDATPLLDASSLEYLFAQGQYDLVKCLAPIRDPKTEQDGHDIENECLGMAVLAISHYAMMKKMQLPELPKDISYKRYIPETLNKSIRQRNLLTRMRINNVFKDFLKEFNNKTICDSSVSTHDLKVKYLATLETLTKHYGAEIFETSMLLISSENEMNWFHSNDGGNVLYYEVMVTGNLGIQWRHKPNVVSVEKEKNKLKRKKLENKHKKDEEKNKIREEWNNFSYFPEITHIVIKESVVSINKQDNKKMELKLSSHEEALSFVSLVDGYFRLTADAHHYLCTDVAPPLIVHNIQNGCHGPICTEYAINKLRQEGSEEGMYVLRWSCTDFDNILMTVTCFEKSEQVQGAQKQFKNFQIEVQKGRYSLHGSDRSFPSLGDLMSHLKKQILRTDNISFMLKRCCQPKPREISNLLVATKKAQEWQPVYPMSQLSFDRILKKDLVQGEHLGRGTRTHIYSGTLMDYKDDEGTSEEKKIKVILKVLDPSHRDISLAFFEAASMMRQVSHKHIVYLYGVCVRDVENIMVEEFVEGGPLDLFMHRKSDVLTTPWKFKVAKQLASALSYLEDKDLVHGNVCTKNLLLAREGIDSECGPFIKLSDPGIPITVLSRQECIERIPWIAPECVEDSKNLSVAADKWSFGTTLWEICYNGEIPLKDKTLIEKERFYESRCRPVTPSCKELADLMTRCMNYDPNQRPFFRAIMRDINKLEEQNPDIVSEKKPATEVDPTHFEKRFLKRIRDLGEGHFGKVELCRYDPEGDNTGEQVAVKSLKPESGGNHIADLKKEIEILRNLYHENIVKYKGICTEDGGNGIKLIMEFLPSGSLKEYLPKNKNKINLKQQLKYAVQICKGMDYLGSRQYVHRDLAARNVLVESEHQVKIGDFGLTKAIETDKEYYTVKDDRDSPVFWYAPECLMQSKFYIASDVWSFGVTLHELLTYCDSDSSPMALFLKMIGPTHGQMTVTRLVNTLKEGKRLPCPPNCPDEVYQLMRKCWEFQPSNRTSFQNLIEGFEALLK
Sequence of Cyclin-dependent kinase 5 (Q00535 whole entry): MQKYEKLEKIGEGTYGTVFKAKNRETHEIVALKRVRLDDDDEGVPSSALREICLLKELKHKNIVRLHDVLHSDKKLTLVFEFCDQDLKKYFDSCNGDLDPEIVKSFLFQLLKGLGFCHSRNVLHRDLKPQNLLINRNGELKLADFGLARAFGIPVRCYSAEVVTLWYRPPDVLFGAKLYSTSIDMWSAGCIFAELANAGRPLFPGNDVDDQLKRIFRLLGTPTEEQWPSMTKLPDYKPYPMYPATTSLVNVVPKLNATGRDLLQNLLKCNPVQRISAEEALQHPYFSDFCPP
Sequence of Serine/threonine-protein kinase B-raf (P15056 whole entry): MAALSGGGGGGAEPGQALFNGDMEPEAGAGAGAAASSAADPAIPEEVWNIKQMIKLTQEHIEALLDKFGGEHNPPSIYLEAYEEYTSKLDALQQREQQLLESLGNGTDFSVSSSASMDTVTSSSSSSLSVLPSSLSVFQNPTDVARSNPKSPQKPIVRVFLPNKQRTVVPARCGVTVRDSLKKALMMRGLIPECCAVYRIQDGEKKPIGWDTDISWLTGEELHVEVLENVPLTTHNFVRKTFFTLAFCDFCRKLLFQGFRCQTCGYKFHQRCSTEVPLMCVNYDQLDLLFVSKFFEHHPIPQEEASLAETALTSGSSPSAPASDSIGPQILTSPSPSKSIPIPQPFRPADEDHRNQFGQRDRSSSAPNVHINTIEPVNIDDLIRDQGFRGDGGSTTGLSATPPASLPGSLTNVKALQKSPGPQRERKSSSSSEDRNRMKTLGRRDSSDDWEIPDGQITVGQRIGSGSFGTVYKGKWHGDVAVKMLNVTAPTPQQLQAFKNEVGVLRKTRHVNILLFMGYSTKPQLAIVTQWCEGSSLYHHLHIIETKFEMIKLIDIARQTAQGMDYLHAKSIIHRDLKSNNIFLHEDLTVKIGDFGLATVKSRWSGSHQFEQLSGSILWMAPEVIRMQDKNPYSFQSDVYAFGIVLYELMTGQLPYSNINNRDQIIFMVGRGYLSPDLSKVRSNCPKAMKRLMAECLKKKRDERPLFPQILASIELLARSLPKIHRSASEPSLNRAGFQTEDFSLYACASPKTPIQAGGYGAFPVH
Sequence of Insulin-like growth factor 1 receptor (P08069 31-736 limits assumed): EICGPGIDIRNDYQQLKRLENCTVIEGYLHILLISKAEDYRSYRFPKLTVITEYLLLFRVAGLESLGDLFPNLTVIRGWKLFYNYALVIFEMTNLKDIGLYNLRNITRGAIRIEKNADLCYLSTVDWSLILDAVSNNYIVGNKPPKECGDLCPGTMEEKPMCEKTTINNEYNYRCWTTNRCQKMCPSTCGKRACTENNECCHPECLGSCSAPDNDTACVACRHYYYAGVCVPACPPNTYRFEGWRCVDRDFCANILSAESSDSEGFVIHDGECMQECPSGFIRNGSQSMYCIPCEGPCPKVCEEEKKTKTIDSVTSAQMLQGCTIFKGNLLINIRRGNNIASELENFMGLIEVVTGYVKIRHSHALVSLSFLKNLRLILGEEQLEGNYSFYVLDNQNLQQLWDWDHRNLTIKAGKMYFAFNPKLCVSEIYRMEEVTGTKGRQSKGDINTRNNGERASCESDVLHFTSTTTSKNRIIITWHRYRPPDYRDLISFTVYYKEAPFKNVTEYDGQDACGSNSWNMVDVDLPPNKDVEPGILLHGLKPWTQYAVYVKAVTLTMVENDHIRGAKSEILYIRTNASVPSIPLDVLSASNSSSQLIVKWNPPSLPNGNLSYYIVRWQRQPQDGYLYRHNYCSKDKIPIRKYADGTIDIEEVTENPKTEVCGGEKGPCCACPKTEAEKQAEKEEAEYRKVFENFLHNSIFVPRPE
Sequence of Insulin-like growth factor 1 receptor (P08069 741-1367 limits assumed): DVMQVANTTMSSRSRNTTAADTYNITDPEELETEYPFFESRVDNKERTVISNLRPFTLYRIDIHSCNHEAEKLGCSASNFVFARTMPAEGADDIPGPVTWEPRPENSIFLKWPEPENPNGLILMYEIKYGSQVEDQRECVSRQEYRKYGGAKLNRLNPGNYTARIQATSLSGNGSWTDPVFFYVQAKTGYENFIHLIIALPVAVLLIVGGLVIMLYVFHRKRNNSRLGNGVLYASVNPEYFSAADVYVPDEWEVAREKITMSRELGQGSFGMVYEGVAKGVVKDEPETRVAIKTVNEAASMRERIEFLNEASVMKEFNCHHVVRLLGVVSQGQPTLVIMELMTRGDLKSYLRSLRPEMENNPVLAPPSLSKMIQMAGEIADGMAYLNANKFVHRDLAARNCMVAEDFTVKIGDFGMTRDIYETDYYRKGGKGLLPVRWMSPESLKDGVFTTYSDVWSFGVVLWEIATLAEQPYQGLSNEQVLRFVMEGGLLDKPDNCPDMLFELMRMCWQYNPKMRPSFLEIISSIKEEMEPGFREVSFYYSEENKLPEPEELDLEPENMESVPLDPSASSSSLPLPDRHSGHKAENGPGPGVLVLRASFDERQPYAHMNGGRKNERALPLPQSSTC

IC50 [1] [nM]	Ratio IC50 [2]	IC50 [3] [nM]	IC50 [4] [nM]	IC50 [5] [nM]	Ratio IC50 [8]	IC50 [10] [nM]	IC50 [11] [nM]	IC50 [13] [nM]	IC50 [14] [nM]	SMILES	inhibition of growth at 10 µM [6] [%]	IC50 [7] [nM]	inhibition of growth at 10 µM (SK-MEL-1) [%]	IC50 [9] [nM]	inhibition of growth at 10 µM (A-375) [%]	inhibition of growth at 10 µM (MCF7) [%]	inhibition of growth at 10 µM (MOLT-4) [%]	inhibition of growth at 10 µM (T84) [%]	inhibition of growth at 10 µM (G-361) [%]	inhibition of growth at 10 µM (HT-29) [%]	further results
2490	14	135	4290	1160	3.04	8540	7620	622	44.5	S=C(Nc1cccc(Cl)c1)N1CCN(c2nnc(Cc3ccccc3)c3ccccc23)CC1	95.3	1140	85.4	880	76.1	78.2	85	81.7	88	84.3	Activity (MDA-PATC53 [12]): Active; Activity [15]: 16%; Activity (MDA-PATC53 [16]): Active; inhibition of growth at 10 µM (KG-1): 69.1%; inhibition of growth at 10 µM (BT-549): 79.3%; inhibition of growth at 10 µM [17]: 96.8%; IC50 [18]: 8960 nM
5650	8.29	369	5510	2830	10	5260	4626	305	36.8	COc1ccc(Cc2nnc(N3CCN(C(=O)Nc4ccc(Cl)c(C(F)(F)F)c4)CC3)c3ccccc23)cc1	97.6	740	74	510	89.2	71.4	84.1	89.6	61.4	87.4	Activity (MDA-PATC53 [12]): Active; Activity [15]: 21%; Activity (MDA-PATC53 [16]): Active; inhibition of growth at 10 µM (KG-1): 72.3%; inhibition of growth at 10 µM (BT-549): 85.5%; inhibition of growth at 10 µM [17]: 99%; IC50 [18]: 3630 nM
5650	4.47	354	8550	8140	8.39	2420	2538	189	42.2	COc1ccc(Cc2nnc(N3CCN(C(=S)Nc4cccc(Cl)c4)CC3)c3ccccc23)cc1	93.5	1000	84.2	730	86.4	62	89.3	88.2	92.3	85	Activity (MDA-PATC53 [12]): Active; Activity [15]: 14%; Activity (MDA-PATC53 [16]): Active; inhibition of growth at 10 µM (KG-1): 74.2%; inhibition of growth at 10 µM (BT-549): 78%; inhibition of growth at 10 µM [17]: 97.1%; IC50 [18]: 8950 nM
4880	1.84	276	3660	7820	4.41	7180	5254	115	62.5	O=C(c1ccccc1)N1CCN(c2nnc(Cc3ccccc3)c3ccccc23)CC1	68.5	5030	54.9	3420	32.1	38.4	51.2	26.3	47.9	40.4	inhibition of growth at 10 µM (KG-1): 73.6%; inhibition of growth at 10 µM (BT-549): 24.3%; inhibition of growth at 10 µM [17]: 75.8%; IC50 [18]: 3570 nM
